Paper PMC8509428, “The Phenoxyalkyltriazine Antagonists for 5-HT6 Receptor with Promising Procognitive and Pharmacokinetic Properties In Vivo in Search for a Novel Therapeutic Approach to Dementia Diseases” (International Journal of Molecular Sciences, 2021)

How the values were obtained:
[1] = test system: rats; assay: Forced swim test (FST); format: in vivo, rat; settings: for Immobility Time: 60 min before test, mean ± SEM
Procedure: The experiment was carried out according to the method of [54]. On the first day of the experiment, the animals were gently individually placed in Plexiglas cylinders (40 cm high, 18 cm in diameter) containing 15 cm of water maintained at 23–25 °C for 15 min. On removal from water, the rats were placed for 30 min in a Plexiglas box under 60-W bulb to dry. On the following day (24 h later), the rats were replaced in the cylinder and the total duration of immobility was recorded during the whole 5-min test period. The immobility was assigned when no additional activity was observed other than that necessary to keep the rat’s head above the water. Fresh water was used for each animal.

[2] = target: human 5-HT6R; settings: ± SD; read-out: Ki 5-HT6 (converted); cited from earlier work
[3] = target: T1, CYP3A4 (Homo sapiens, UniProt P08684); assay: CYP3A4 P450-Glo assay; format: in vitro ADME
T1 construct: purchased Promega
Procedure: The luminescent CYP3A4 P450-Glo™ Promega® (Madison, WI, USA) was used for the investigation of potential drug-drug interactions. All assays and protocols were described before. The compounds were tested in triplicate at the final concentrations in the range from 0.01 to 25 μM. The luminescent signal was measured by using a microplate reader EnSpire PerkinElmer (Waltham, MA, USA).

[4] = target: 5-HT7R; settings: ± SD; read-out: Ki 5-HT7 (converted); cited from earlier work
[5] = PAMPA permeability; format: in vitro ADME; settings: PBS pH 7.4, 5 h, triplicate, read-out: Pe (PAMPA permeability coefficient) ± SD
Procedure: The 96-well Pre-coated PAMPA Plate System Gentest™ that was used was obtained from Corning (Tewksbury, MA, USA). […] 200 μL/well of PBS was added to the acceptor wells. All compounds were analyzed in triplicate. The plate was incubated at room temperature for 5 h. Then, the 50 μL was aspirated from each well and diluted next with 50 µL solution of an internal standard (IS). The compounds’ concentrations in acceptor and donor wells were estimated by the UPLC-MS analyses, which were performed by LC/MS Waters ACQUITY™ TQD system with the TQ Detector (Waters, Milford, CT, USA). The permeability coefficients (Pe, cm/s) were calculated according described previously formulas.

[6] = test system: hepatoma HepG2 cell line; assay: Hepatotoxicity, HepG2 viability (MTS); format: cell-based; settings: 0.1–100 µM, 72 h
Procedure: Cells were grown under previously described conditions. […] The cells’ viability was determined by CellTiter 96® AQueous Non-Radioactive Cell Proliferation Assay (MTS), which was purchased from Promega® (Madison, WI, USA). The absorbance was measured using a microplate reader EnSpire (PerkinElmer, Waltham, MA USA) at 490 nm. All compounds were tested in quadruplicate.

[7] = test system: SH-SY5Y cells; assay: Intracellular ROS, DCFH-DA assay (neuroprotection); format: cell-based, human; settings: SH-SY5Y neuroblastoma cells
Procedure: ROS measurement was assayed by 2′,7′-Dichlorofluorescin diacetate (DCFH-DA, Sigma D6883). […] Briefly, SH-SY5Y cells (4 × 10^3 cells/well) were seeded in a black-sided, clear-bottom 384-well plate (Life Technologies, Warsaw, Poland) in DMEM without phenol red (Life Technologies, Warsaw, Poland) supplemented with 5% FBS and cultured for 24 h. The next day, the medium was removed, the cells were washed once with HBSS and treated for 45 min with non-fluorescent dye DCFH-DA (final concentration 25 μM, freshly prepared in warm HBSS). […] After that, toxic agents were added: H2O2 (200 μM), oxaliplatin (OXA, 25 μM) and rotenone (ROT, 32.5 μM) and the cells were incubated for 5 h. In our preliminary experiments, different concentration of toxic agents was tested to choose the convenient one that leads to 50% cell death. As a positive control, the cells were incubated alone with toxic agents. As a vehicle control, the cells were incubated with HBSS with 0.1% DMSO. In the presence of ROS, the non-fluorescent dye DCFH-DA is oxidized, producing fluorescent dichlorofluorescein (DCF). Fluorescence was measured at Ex/Em = 485/535 nm using the microplate reader EnSpire.

[8] = test system: MK-801-induced memory deficits in rats; assay: Novel object recognition (NOR) test, MK-801-induced memory impairment; format: in vivo, rat; settings: for Total Exploratory Time in T2 Session: mean ± SEM; for minimal effective dose in NOR test: i.p., reversal of MK-801-induced memory impairment
Procedure: Five days before the experiment, the rats were transferred to the laboratory, labelled and, thereafter, left to acclimate to the new environment. The animals were handling every five days before experiments to minimize the stress reaction. The protocol was adapted from the original work. The test session comprising of two trials separated by an inter-trial interval (ITI) of 1 h was carried out after 2 days of the training session. During the first trial (familiarization, T1) two identical objects (A1 and A2) were presented in the opposite corners of the open field, approximately 10 cm from the walls. During the second trial (recognition, T2) one of the A objects was replaced by a novel object B, so that the animals were presented with the A = familiar and B = novel objects. Both trials lasted for 3 min and the animals were returned to their home cages after T1.
The objects used were the metal Coca-Cola cans and the glass jars filled with sand. […] The sequence of presentations and the location of the objects were randomly assigned to each rat. After each measurement, the floor was cleaned and dried.
The animals explored the objects by looking, licking, sniffing or touching the object but not when leaning against, standing or sitting on the object. Any rat exploring the two objects for less than 5 s within 3 min of T1 or T2 was eliminated from the study. The exploration time of the objects was measured by a blind experimenter. Based on the exploration time (E) of two objects during T2, the discrimination index (DI) was calculated according to the formula: DI = (EB − EA)/(EA + […]). Using this metric, scores approaching zero reflects no preference while positive values reflect a preference for the novel object and negative numbers reflect a preference for the familiar.
MK-801, used to attenuate learning, was administered at the dose of 0.1 mg/kg (i.p.) 30 min before the familiarization phase (T1), while investigated compounds were given 60 min before T1 session. In such scheme of experiment we could observe the impact of investigated compounds on the one type of rats’ memory—episodic memory and one phase of memory process—[…].
The total exploration time in T2 was used to express the influence of the treatment on the exploratory activity of the animals.

[9] = 0.3 mg/kg i.p. + MK-801 0.1 mg/kg
[10] = 1 mg/kg i.p. + MK-801 0.1 mg/kg
[11] = 3 mg/kg i.p. + MK-801 0.1 mg/kg

T1 sequence (P08684 whole entry): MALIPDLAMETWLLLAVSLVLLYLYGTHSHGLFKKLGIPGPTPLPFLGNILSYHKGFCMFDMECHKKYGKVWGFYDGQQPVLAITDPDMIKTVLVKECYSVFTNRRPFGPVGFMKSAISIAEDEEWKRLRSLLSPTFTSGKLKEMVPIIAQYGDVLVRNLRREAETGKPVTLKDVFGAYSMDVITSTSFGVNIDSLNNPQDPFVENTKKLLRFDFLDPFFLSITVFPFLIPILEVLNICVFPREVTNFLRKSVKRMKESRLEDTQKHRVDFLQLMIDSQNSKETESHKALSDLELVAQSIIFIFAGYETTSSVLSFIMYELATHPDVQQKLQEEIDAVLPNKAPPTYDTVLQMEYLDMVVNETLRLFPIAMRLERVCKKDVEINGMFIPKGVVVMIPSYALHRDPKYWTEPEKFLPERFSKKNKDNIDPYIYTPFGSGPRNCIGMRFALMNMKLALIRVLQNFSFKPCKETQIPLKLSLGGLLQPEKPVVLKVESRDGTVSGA

Compound	Immobility Time ([1]; 1 mg/kg i.p.) [s]	Immobility Time ([1]; 3 mg/kg i.p.) [s]	decrease of immobility time vs vehicle-treated group ([1]; 10 mg/kg)	Immobility Time ([1]; 10 mg/kg i.p.) [s]	Ki [2] [nM]	inhibition against CYP3A4 ([3]; all tested concentrations (0.1 to 25 μM))	Ki [4] [nM]	Papp at 5 h [5] [×10⁻⁶ cm/s]	hepatotoxicity effect, HepG2 viability [6]	protective activity against rotenone-induced neurotoxicity [7]	Total Exploratory Time in T2 Session [8, 9] [s]	Total Exploratory Time in T2 Session [8, 10] [s]	Total Exploratory Time in T2 Session [8, 11]	minimal effective dose in NOR test [8] [mg/kg]	decrease of immobility time vs vehicle-treated group ([1]; 3 mg/kg)	CYP3A4 activity remaining ([3]; 10 μM of compound) [%]	Total Exploratory Time in T2 Session ([8]; 0.1 mg/kg i.p. + MK-801 0.1 mg/kg) [s]
CCC(Oc1cccc(Cl)c1Cl)c1nc(N)nc(N2CCN(C)CC2)n1 (racemic) [Compound 2, (RS)-4-[1-(2,3-dichlorophenoxy)propyl]-6-(4-methylpiperazin-1-yl)-1,3,5-triazin-2-amine]	223.13 ± 11.4	220.71 ± 4.7	25%	171.38 ± 12.80	6 ± 2	did not display an inhibition	5200	20.5 ± 5.4	no hepatotoxicity effect	protective activity	52.67 ± 5.37	40.33 ± 6.66	42.88 ± 2.10 F(4,27) = 3.5450; p < 0.05 s	0.3	–	–	–
CCC(Oc1ccccc1)c1nc(N)nc(N2CCN(C)CC2)n1 (racemic) [Compound 3, (RS)-4-(4-methylpiperazin-1-yl)-6-(1-phenoxypropyl)-1,3,5-triazin-2-amine]	177.50 ± 6.1	159.13 ± 13.3	about 36%	134.63 ± 16.7	21	–	19900	15.1 ± 1	no hepatotoxicity effect	protective activity	38.14 ± 4.18	35.57 ± 3.76	34.14 ± 1.22; F(5,47) = 1.9394; NS s	0.1	about 30%	64	47.33 ± 4.79
